# Reference: patent US6461997B1, “Triazole sulfones having herbicidal activity” (Monsanto Technology LLC, priority 1999, dated 2002)
# How the values were obtained:
# SASKR (russian thistle) = assay: Pre-emergence herbicidal activity, cool season; type: in vivo, Salsola kali; conditions: lowest tested rate with 80% or greater inhibition; rates 300, 100, 30, 10 g/ha; about 14 days
# Method in brief: (§1)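 Seeds sown in sterilised fertilised topsoil received surface-applied compound in 50:50 acetone/water, typically at 300, 100, 30 and 10 g/ha, then greenhouse-grown at 30/21° C (warm-season species) or 18/13° C (cool-season species). Percent inhibition versus untreated plants was scored at about 14 days, giving GR80; an asterisk marks activity short of 80% at the top rate.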
# [1] = test system: PANMI (wild proso millet); assay: Pre-emergence herbicidal activity, warm season; type: in vivo, Panicum miliaceum; conditions: GR80 = lowest tested rate (300, 100, 30, 10 g/ha) with 80% or greater inhibition; approx. 14 days after treating; 30/21° C.
# Method in brief: as §1
# [2] = test system: LAMPU (purple deadnettle); assay: Pre-emergence herbicidal activity, cool season; type: in vivo, Lamium purpureum; conditions: lowest tested rate with 80% or greater inhibition; rates 300, 100, 30, 10 g/ha; about 14 days
# Method in brief: as §1
# [3] = test system: GALAP (catchweed bedstraw); assay: Pre-emergence herbicidal activity, cool season; type: in vivo, Galium aparine; conditions: lowest tested rate with 80% or greater inhibition; rates 300, 100, 30, 10 g/ha; about 14 days
# Method in brief: as §1
# SINAR (wild mustard) = assay: Pre-emergence herbicidal activity, cool season; type: in vivo, Sinapis arvensis; conditions: lowest tested rate with 80% or greater inhibition; rates 300, 100, 30, 10 g/ha; about 14 days
# Method in brief: as §1
# DATST (jimsonweed) = assay: Pre-emergence herbicidal activity, warm season; type: in vivo, Datura stramonium; conditions: GR80 = lowest tested rate (300, 100, 30, 10 g/ha) with 80% or greater inhibition; approx. 14 days after treating; 30/21° C.
# Method: (§2) Tables 5 to 8 summarize results of tests conducted as described below to determine the pre-emergence herbicidal activity, in the form of a GR80 value, of illustrative compounds of this invention. […] Compounds of the invention were typically applied at rates of 300, 100, 30, and 10 g/ha. Where herbicidal activity was evident but 80% inhibition was not achieved at the highest rate tested, an asterisk (*) is shown in the following tables.
# (§3) The pre-emergence tests were conducted by the following procedure. Topsoil was sieved to pass through a 1.27 cm screen. Fertilizer was added to the topsoil and the mixture was then sterilized by heating. The topsoil mixture was placed in a pot and compacted to a depth of 1.0 to 1.25 cm from the top of the pot. Seeds of each of several monocotyledonous and dicotyledonous annual plant species were placed on top of the soil. Additional soil was subsequently placed over the seeds to level-fill the pot. A known amount of each test compound dissolved or suspended in an appropriate organic solvent was diluted with a 50:50 mix of acetone and water and applied to the surface of the soil. After treatment the plants were placed in a greenhouse where they received 0.64 cm of overhead irrigation. All subsequent watering consisted of a light overhead mist and/or subirrigation as needed for germination and growth. Tables 5 and 6 below relate to warm season plant species which were placed after pre-emergence treatment in a greenhouse with a 30/21° C. day/night temperature regime. Tables 7 and 8 below relates to cool season plant species placed after pre-emergence treatment in a greenhouse or growth chamber with an 18/13° C. day/night temperature regime.
# (§4) Approximately 14 days after planting and treating, the plants were observed and herbicidal efficacy recorded as percent inhibition by comparison with untreated plants.
# (§5) The plant species usually regarded as weeds which were utilized in the tests are identified in the tables below according to the following legend, in which “d” indicates a dicotyledonous species and “m” a monocotyledonous species. All monocotyledonous species included in the tests herein are grasses.
# POLCO (wild buckwheat) = assay: Pre-emergence herbicidal activity, cool season; type: in vivo, Polygonum convolvulus; conditions: lowest tested rate with 80% or greater inhibition; rates 300, 100, 30, 10 g/ha; about 14 days
# Method in brief: as §1
# STEME (common chickweed) = assay: Pre-emergence herbicidal activity, cool season; type: in vivo, Stellaria media; conditions: lowest tested rate with 80% or greater inhibition; rates 300, 100, 30, 10 g/ha; about 14 days
# Method in brief: as §1
# [4] = test system: AGSST (creeping bentgrass); assay: Pre-emergence herbicidal activity, cool season; type: in vivo, Agrostis stolonifera; conditions: GR80 = lowest tested rate (300, 100, 30, 10 g/ha) with 80% or greater inhibition; approx. 14 days after treating; 18/13° C.
# Method in brief: as §1
# [5] = test system: VERPE (creeping speedwell); assay: Pre-emergence herbicidal activity, cool season; type: in vivo, Veronica persicaria; conditions: lowest tested rate with 80% or greater inhibition; rates 300, 100, 30, 10 g/ha; about 14 days
# Method in brief: as §1
# SETVI (green foxtail) = assay: Pre-emergence herbicidal activity, cool season; type: in vivo, Setaria viridis; conditions: GR80 = lowest tested rate (300, 100, 30, 10 g/ha) with 80% or greater inhibition; approx. 14 days after treating; 18/13° C.
# Method in brief: as §1
# [6] = test system: CHEAL (common lambsquarters); assay: Pre-emergence herbicidal activity, warm season; type: in vivo, Chenopodium album; conditions: GR80 = lowest tested rate (300, 100, 30, 10 g/ha) with 80% or greater inhibition; approx. 14 days after treating; 30/21° C.
# Method: as §2, §3, §4, §5
# POROL (common purslane) = assay: Pre-emergence herbicidal activity, warm season; type: in vivo, Portulaca oleracea; conditions: GR80 = lowest tested rate (300, 100, 30, 10 g/ha) with 80% or greater inhibition; approx. 14 days after treating; 30/21° C.
# Method: as §2, §3, §4, §5
# ECHCG (barnyardgrass) = assay: Pre-emergence herbicidal activity, warm season; type: in vivo, Echinochloa crus-galli; conditions: GR80 = lowest tested rate (300, 100, 30, 10 g/ha) with 80% or greater inhibition; approx. 14 days after treating; 30/21° C.
# Method: as §2, §3, §4, §5
# [7] = test system: CIRAR (canada thistle (seedling)); assay: Pre-emergence herbicidal activity, warm season; type: in vivo, Cirsium arvense; conditions: GR80 = lowest tested rate (300, 100, 30, 10 g/ha) with 80% or greater inhibition; approx. 14 days after treating; 30/21° C.
# Method: as §2, §3, §4, §5
# ALOMY (blackgrass) = assay: Pre-emergence herbicidal activity, cool season; type: in vivo, Alopecurus myosuroides; conditions: GR80 = lowest tested rate (300, 100, 30, 10 g/ha) with 80% or greater inhibition; approx. 14 days after treating; 18/13° C.
# Method: as §2, §3, §4, §5
# SOLNI (black nightshade) = assay: Pre-emergence herbicidal activity, warm season; type: in vivo, Solanum nigrum; conditions: GR80 = lowest tested rate (300, 100, 30, 10 g/ha) with 80% or greater inhibition; approx. 14 days after treating; 30/21° C.
# Method: as §2, §3, §4, §5
# AMARE (redroot pigweed) = assay: Pre-emergence herbicidal activity, warm season; type: in vivo, Amaranthus retroflexus; conditions: GR80 = lowest tested rate (300, 100, 30, 10 g/ha) with 80% or greater inhibition; approx. 14 days after treating; 30/21° C.
# Method: as §2, §3, §4, §5
# SETFA (giant foxtail) = assay: Pre-emergence herbicidal activity, warm season; type: in vivo, Setaria faberi; conditions: GR80 = lowest tested rate (300, 100, 30, 10 g/ha) with 80% or greater inhibition; approx. 14 days after treating; 30/21° C.
# Method: as §2, §3, §4, §5
# [8] = test system: SORHA (johnsongrass (seedling)); assay: Pre-emergence herbicidal activity, warm season; type: in vivo, Sorghum halepense; conditions: GR80 = lowest tested rate (300, 100, 30, 10 g/ha) with 80% or greater inhibition; approx. 14 days after treating; 30/21° C.
# Method: as §2, §3, §4, §5
# [9] = test system: BRAPP (broadleaf signalgrass); assay: Pre-emergence herbicidal activity, warm season; type: in vivo, Brachiaria platyphylla; conditions: GR80 = lowest tested rate (300, 100, 30, 10 g/ha) with 80% or greater inhibition; approx. 14 days after treating; 30/21° C.
# Method: as §2, §3, §4, §5
# SORVU (shattercane) = assay: Pre-emergence herbicidal activity, warm season; type: in vivo, Sorghum vulgare; conditions: GR80 = lowest tested rate (300, 100, 30, 10 g/ha) with 80% or greater inhibition; approx. 14 days after treating; 30/21° C.
# Method: as §2, §3, §4, §5
# DIGSA (large crabgrass) = assay: Pre-emergence herbicidal activity, warm season; type: in vivo, Digitaria sanguinalis; conditions: GR80 = lowest tested rate (300, 100, 30, 10 g/ha) with 80% or greater inhibition; approx. 14 days after treating; 30/21° C.
# Method: as §2, §3, §4, §5
SMILES,"Pre-emergence activity GR80, SASKR (SASKR (russian thistle))",Pre-emergence activity (GR80) PANMI [1],"Pre-emergence activity GR80, LAMPU [2]","Pre-emergence activity GR80, GALAP [3]","Pre-emergence activity GR80, SINAR (SINAR (wild mustard))",Pre-emergence activity (GR80) DATST (DATST (jimsonweed)),"Pre-emergence activity GR80, POLCO (POLCO (wild buckwheat))","Pre-emergence activity GR80, STEME (STEME (common chickweed))",Pre-emergence activity (GR80) AGSST [4],"Pre-emergence activity GR80, VERPE [5]",Pre-emergence activity (GR80) SETVI (SETVI (green foxtail)),Pre-emergence activity (GR80) CHEAL [6],Pre-emergence activity (GR80) POROL (POROL (common purslane)),Pre-emergence activity (GR80) CIRAR [7],Pre-emergence activity (GR80) ALOMY (ALOMY (blackgrass)),further results
CN(Cc1ccccc1)C(=O)n1cnc(S(=O)(=O)C(F)F)n1 [Example 33],300 g/ha,300 g/ha,30 g/ha,[empty],[empty],300 g/ha,[empty],100 g/ha,300 g/ha,300 g/ha,–,–,–,–,–,–
CCSC(F)(F)S(=O)(=O)c1ncn(C(=O)N2CCOCC2)n1 [Example 48],[empty],–,[empty],300 g/ha,[empty],300 g/ha,300 g/ha,300 g/ha,–,[empty],–,–,–,–,–,–
CCSC(F)(F)S(=O)(=O)c1ncn(C(=O)N(C)Cc2ccccc2)n1 [Example 56],[empty],–,[empty],[empty],[empty],300 g/ha,[empty],[empty],100 g/ha,[empty],100 g/ha,–,–,–,–,–
CCSC(F)(F)S(=O)(=O)c1ncn(C(=S)N(CC)CC)n1 [Example 58],300 g/ha,–,300 g/ha,300 g/ha,[empty],300 g/ha,300 g/ha,300 g/ha,–,300 g/ha,300 g/ha,300 g/ha,–,–,–,–
CN(C)C(=O)n1cnc(S(=O)(=O)C(F)(F)C(F)F)n1 [Example 61],100 g/ha,300 g/ha,300 g/ha,100 g/ha,300 g/ha,–,[empty],300 g/ha,100 g/ha,100 g/ha,300 g/ha,300 g/ha,300 g/ha,300 g/ha,100 g/ha,Pre-emergence activity (GR80) ECHCG (ECHCG (barnyardgrass)): 300 g/ha
O=C(N1CCCC1)n1cnc(S(=O)(=O)C(F)(F)C(F)F)n1 [Example 71],[empty],300 g/ha,300 g/ha,100 g/ha,[empty],–,300 g/ha,300 g/ha,100 g/ha,[empty],100 g/ha,30 g/ha,300 g/ha,300 g/ha,300 g/ha,Pre-emergence activity (GR80) SOLNI (SOLNI (black nightshade)): 300 g/ha; Pre-emergence activity (GR80) AMARE (AMARE (redroot pigweed)): 300 g/ha; Pre-emergence activity (GR80) SETFA (SETFA (giant foxtail)): 300 g/ha; Pre-emergence activity (GR80) SORHA [8]: 300 g/ha
O=C(N1CCOCC1)n1cnc(S(=O)(=O)C(F)(F)Cl)n1 [Example 84],[empty],–,300 g/ha,[empty],[empty],300 g/ha,300 g/ha,[empty],–,[empty],–,–,–,–,–,–
CCCN(CC)C(=O)n1cnc(S(=O)(=O)C(F)(F)Cl)n1 [Example 87],[empty],30 g/ha,100 g/ha,300 g/ha,[empty],–,[empty],[empty],100 g/ha,100 g/ha,100 g/ha,300 g/ha,100 g/ha,300 g/ha,100 g/ha,Pre-emergence activity (GR80) SOLNI (SOLNI (black nightshade)): 100 g/ha; Pre-emergence activity (GR80) AMARE (AMARE (redroot pigweed)): 300 g/ha; Pre-emergence activity (GR80) BRAPP [9]: 300 g/ha; Pre-emergence activity (GR80) SETFA (SETFA (giant foxtail)): 300 g/ha; Pre-emergence activity (GR80) SORVU (SORVU (shattercane)): 300 g/ha; Pre-emergence activity (GR80) SORHA [8]: 100 g/ha; Pre-emergence activity (GR80) ECHCG (ECHCG (barnyardgrass)): 100 g/ha; Pre-emergence activity (GR80) DIGSA (DIGSA (large crabgrass)): 300 g/ha
